Experimental findings from ChEMBL document CHEMBL3297661, “1-Substituted-5-[(3,5-dinitrobenzyl)sulfanyl]-1H-tetrazoles and their isosteric analogs: A new class of selective antitubercular agents active against drug-susceptible and multidrug-resistant mycobacteria” (Eur J Med Chem, 2014) are described below.

≈ marks a conversion by molar mass, not a printed value.

Holding throughout (format): functional
In assay [1] the test system is Mycobacterium tuberculosis. Briefly: Antimycobacterial activity against Mycobacterium tuberculosis CNCTC My 331/88 after 14 days by micromethod. The settings on record: CNCTC My 331/88, 336 h.
Assay [2] has as its system Mycobacterium tuberculosis. As to the kind of experiment: Antimycobacterial activity against Mycobacterium tuberculosis CNCTC My 331/88 after 21 days by micromethod. The settings on record: CNCTC My 331/88, 504 h.
Assay [3] relates to Mycobacterium avium. Briefly: Antimycobacterial activity against Mycobacterium avium CNCTC My 330/88 after 14 days by micromethod. The settings on record: CNCTC My 330/88, 336 h.
Assay [4] deals with Mycobacterium avium. As to the kind of experiment: Antimycobacterial activity against Mycobacterium avium CNCTC My 330/88 after 21 days by micromethod. To be noted: CNCTC My 330/88, 504 h.
Assay [5] concerns Mycobacterium kansasii. Briefly: Antimycobacterial activity against Mycobacterium kansasii CNCTC My 235/80 after 7 days by micromethod. To be noted: CNCTC My 235/80, 168 h.
Assay [6] has as its system Mycobacterium kansasii. Briefly: Antimycobacterial activity against Mycobacterium kansasii CNCTC My 235/80 after 14 days by micromethod. The settings on record: CNCTC My 235/80, 336 h.
The subject of assay [7] is Mycobacterium kansasii. As to the kind of experiment: Antimycobacterial activity against Mycobacterium kansasii CNCTC My 235/80 after 21 days by micromethod. To be noted: CNCTC My 235/80, 504 h.
In assay [8] the test system is Mycobacterium kansasii. As to the kind of experiment: Antimycobacterial activity against Mycobacterium kansasii 6509/96 after 7 days by micromethod. The settings on record: 6509/96, 168 h.
For assay [9], the system named is Mycobacterium kansasii. Briefly: Antimycobacterial activity against Mycobacterium kansasii 6509/96 after 14 days by micromethod. To be noted: 6509/96, 336 h.
Assay [10] concerns Mycobacterium kansasii. Briefly: Antimycobacterial activity against Mycobacterium kansasii 6509/96 after 21 days by micromethod. To be noted: 6509/96, 504 h.

Regarding `O=[N+]([O-])c1cc(C[Se]c2nnnn2-c2ccccc2)cc([N+](=O)[O-])c1`, the MIC in assay [1] turned out to be 8 µM (≈ 3.24 µg/mL); in [2] it was 8 µM (≈ 3.24 µg/mL); with Mycobacterium avium [3], 32 µM (≈ 13 µg/mL); against Mycobacterium avium [4] it was 32 µM (≈ 13 µg/mL); in the assay with Mycobacterium kansasii [5], 8 µM (≈ 3.24 µg/mL); against Mycobacterium kansasii [6] it was 8 µM (≈ 3.24 µg/mL). Moreover, the MIC against Mycobacterium kansasii [7] was determined as 16 µM (≈ 6.48 µg/mL); against Mycobacterium kansasii [8] it was 16 µM (≈ 6.48 µg/mL); in the assay on Mycobacterium kansasii [9] it was 16 µM (≈ 6.48 µg/mL); against Mycobacterium kansasii [10], 32 µM (≈ 13 µg/mL).

For `O=[N+]([O-])c1cc(CSc2nnnn2-c2cccc(F)c2)cc([N+](=O)[O-])c1`, the MIC in assay [1] was 16 µM (≈ 6.02 µg/mL); in assay [2], 32 µM (≈ 12 µg/mL); in the assay with Mycobacterium avium [3] it was 250 µM (≈ 94.1 µg/mL); with Mycobacterium avium [4] it was 250 µM (≈ 94.1 µg/mL); against Mycobacterium kansasii [5], 4 µM (≈ 1.51 µg/mL); against Mycobacterium kansasii [6] it was 4 µM (≈ 1.51 µg/mL). Moreover, the MIC in the assay with Mycobacterium kansasii [7] turned out to be 8 µM (≈ 3.01 µg/mL); in the assay with Mycobacterium kansasii [8], 4 µM (≈ 1.51 µg/mL); against Mycobacterium kansasii [9], 8 µM (≈ 3.01 µg/mL); against Mycobacterium kansasii [10] it was 8 µM (≈ 3.01 µg/mL).

As for `O=[N+]([O-])c1cc(COc2nnnn2-c2ccc(Cl)cc2)cc([N+](=O)[O-])c1`, the MIC in assay [1] was found to be 2 µM (≈ 0.753 µg/mL); in assay [2], 4 µM (≈ 1.51 µg/mL); against Mycobacterium avium [3], 32 µM (≈ 12.1 µg/mL); in the assay with Mycobacterium avium [4], 62 µM (≈ 23.4 µg/mL); in the assay on Mycobacterium kansasii [5], 8 µM (≈ 3.01 µg/mL); against Mycobacterium kansasii [6], 16 µM (≈ 6.03 µg/mL). Besides, the MIC with Mycobacterium kansasii [7] was determined as 32 µM (≈ 12.1 µg/mL); with Mycobacterium kansasii [8] it was 8 µM (≈ 3.01 µg/mL); in the assay with Mycobacterium kansasii [9] it was 16 µM (≈ 6.03 µg/mL); in the assay on Mycobacterium kansasii [10], 32 µM (≈ 12.1 µg/mL).

`CC(=O)SCc1cc([N+](=O)[O-])cc([N+](=O)[O-])c1`: the minimal inhibitory concentration (MIC) stood at 8 µM (≈ 2.05 µg/mL) in assay [1]; 16 µM (≈ 4.1 µg/mL) in assay [2]; 62 µM (≈ 15.9 µg/mL) in the assay on Mycobacterium avium [3]; 125 µM (≈ 32 µg/mL) with Mycobacterium avium [4]; 16 µM (≈ 4.1 µg/mL) in the assay with Mycobacterium kansasii [5]; 32 µM (≈ 8.2 µg/mL) in the assay with Mycobacterium kansasii [6]. In addition, the minimal inhibitory concentration (MIC) is 125 µM (≈ 32 µg/mL) in the assay with Mycobacterium kansasii [7], 62 µM (≈ 15.9 µg/mL) against Mycobacterium kansasii [8], 125 µM (≈ 32 µg/mL) against Mycobacterium kansasii [9] and 500 µM (≈ 128 µg/mL) in the assay with Mycobacterium kansasii [10].

Regarding `O=[N+]([O-])c1cc(CSc2nnnn2-c2ccc(Cl)cc2)cc([N+](=O)[O-])c1`, the minimal inhibitory concentration (MIC) in [1] was 1 µM (≈ 0.393 µg/mL); in assay [2], 2 µM (≈ 0.786 µg/mL); in the assay with Mycobacterium avium [3], 125 µM (≈ 49.1 µg/mL); against Mycobacterium avium [4] it was 125 µM (≈ 49.1 µg/mL); in the assay with Mycobacterium kansasii [5] it was 2 µM (≈ 0.786 µg/mL); in the assay on Mycobacterium kansasii [6], 4 µM (≈ 1.57 µg/mL). The MIC with Mycobacterium kansasii [7] is 4 µM (≈ 1.57 µg/mL); against Mycobacterium kansasii [8], 2 µM (≈ 0.786 µg/mL); in the assay on Mycobacterium kansasii [9] it was 4 µM (≈ 1.57 µg/mL); against Mycobacterium kansasii [10] it was 4 µM (≈ 1.57 µg/mL).

Take `Cn1nnnc1SCc1cc([N+](=O)[O-])cc([N+](=O)[O-])c1`: the minimal inhibitory concentration (MIC) in [1] is 4 µM (≈ 1.19 µg/mL); in assay [2] it was 8 µM (≈ 2.37 µg/mL); against Mycobacterium avium [3] it was 500 µM (≈ 148 µg/mL); in the assay with Mycobacterium avium [4] it was 1000 µM (≈ 296 µg/mL); against Mycobacterium kansasii [5], 4 µM (≈ 1.19 µg/mL); in the assay with Mycobacterium kansasii [6], 16 µM (≈ 4.74 µg/mL). Moreover, the MIC stood at 32 µM (≈ 9.48 µg/mL) with Mycobacterium kansasii [7], 16 µM (≈ 4.74 µg/mL) against Mycobacterium kansasii [8], 32 µM (≈ 9.48 µg/mL) against Mycobacterium kansasii [9] and 32 µM (≈ 9.48 µg/mL) against Mycobacterium kansasii [10].

Regarding `COc1ccc(-n2nnnc2SCc2ccc([N+](=O)[O-])cc2[N+](=O)[O-])cc1`, the MIC was 8 µM (≈ 3.11 µg/mL) in assay [1]; 8 µM (≈ 3.11 µg/mL) in assay [2]; 62 µM (≈ 24.1 µg/mL) against Mycobacterium avium [3]; 62 µM (≈ 24.1 µg/mL) with Mycobacterium avium [4]; 32 µM (≈ 12.4 µg/mL) in the assay on Mycobacterium kansasii [5]; 62 µM (≈ 24.1 µg/mL) against Mycobacterium kansasii [6]. Also, the MIC against Mycobacterium kansasii [7] was 62 µM (≈ 24.1 µg/mL); in the assay on Mycobacterium kansasii [8] it was 8 µM (≈ 3.11 µg/mL); in the assay on Mycobacterium kansasii [9] it was 16 µM (≈ 6.21 µg/mL); against Mycobacterium kansasii [10], 32 µM (≈ 12.4 µg/mL).

As to `O=[N+]([O-])c1cc(CSc2nnnn2-c2ccccc2)cc([N+](=O)[O-])c1`, the MIC was determined as 4 µM (≈ 1.43 µg/mL) in [1]; 4 µM (≈ 1.43 µg/mL) in [2]; 62 µM (≈ 22.2 µg/mL) in the assay on Mycobacterium avium [3]; 62 µM (≈ 22.2 µg/mL) with Mycobacterium avium [4]; 2 µM (≈ 0.717 µg/mL) against Mycobacterium kansasii [5]; 4 µM (≈ 1.43 µg/mL) against Mycobacterium kansasii [6]. In addition, the MIC is 16 µM (≈ 5.73 µg/mL) in the assay with Mycobacterium kansasii [7], 2 µM (≈ 0.717 µg/mL) against Mycobacterium kansasii [8], 2 µM (≈ 0.717 µg/mL) against Mycobacterium kansasii [9] and 4 µM (≈ 1.43 µg/mL) against Mycobacterium kansasii [10].

`COc1ccc(-n2nnnc2SCc2cc(N)cc(N)c2)cc1`: the MIC turned out to be 125 µM (≈ 41.1 µg/mL) in assay [1]; 125 µM (≈ 41.1 µg/mL) in assay [2]; 1000 µM (≈ 328 µg/mL) in the assay with Mycobacterium avium [3]; 1000 µM (≈ 328 µg/mL) against Mycobacterium avium [4]; 250 µM (≈ 82.1 µg/mL) against Mycobacterium kansasii [5]; 1000 µM (≈ 328 µg/mL) with Mycobacterium kansasii [6]. Further, the MIC in the assay on Mycobacterium kansasii [7] stood at 1000 µM (≈ 328 µg/mL); in the assay with Mycobacterium kansasii [8] it was 250 µM (≈ 82.1 µg/mL); in the assay on Mycobacterium kansasii [9], 1000 µM (≈ 328 µg/mL); with Mycobacterium kansasii [10] it was 1000 µM (≈ 328 µg/mL).

For `O=[N+]([O-])c1ccc(CSc2nnnn2-c2ccccc2)c([N+](=O)[O-])c1`, the MIC came to 8 µM (≈ 2.87 µg/mL) in assay [1]; 16 µM (≈ 5.73 µg/mL) in assay [2]; 32 µM (≈ 11.5 µg/mL) with Mycobacterium avium [3]; 62 µM (≈ 22.2 µg/mL) in the assay with Mycobacterium avium [4]; 16 µM (≈ 5.73 µg/mL) against Mycobacterium kansasii [5]; 62 µM (≈ 22.2 µg/mL) in the assay on Mycobacterium kansasii [6]. Besides, the MIC in the assay on Mycobacterium kansasii [7] came out at 62 µM (≈ 22.2 µg/mL); with Mycobacterium kansasii [8], 8 µM (≈ 2.87 µg/mL); in the assay with Mycobacterium kansasii [9], 32 µM (≈ 11.5 µg/mL); against Mycobacterium kansasii [10], 32 µM (≈ 11.5 µg/mL).
